Consider 40 compounds from US9393232B2 (BeiGene, Ltd., priority 2013, dated 2016).

Structures are written as SMILES. Like-named read-outs stand apart in the source and are kept apart here.

The target in this test is Recombinant human BRD4(1-477) (Homo sapiens (Human), UniProt O60885). Kind of test: BRD4 TR-FRET biochemical IC50 assay. It is filed as binding. As to conditions: tetra-acetylated histone peptide.

Turning to `Cc1noc(C)c1-c1ccc2c(c1)C(C1CCCCC1)(N1CCCC(O)C1)C(=O)N2` (stereo not shown) [Compound 2.32, 3-cyclohexyl-5-(3,5-dimethylisoxazol-4-yl)-3-(3-hydroxypiperidin-1-yl)indolin-2-one], under “TR-FRET, read-out: BRD4 IC50”, the IC50 (as a rule, the concentration needed to halve the response being measured) was 60 nM.

Take `Cc1noc(C)c1-c1ccc2c(c1)C(O)(C(C)C)C(=O)N2` (stereo not shown) [Compound 1.27, 5-(3,5-dimethylisoxazol-4-yl)-3-hydroxy-3-isopropylindolin-2-one]: the IC50 (TR-FRET, read-out: BRD4 IC50) was 2800 nM.

On to `Cc1noc(C)c1-c1ccc2c(c1)C(c1ccccc1)(N1CCN(CCO)CC1)C(=O)N2` (stereo not shown) [Compound 2.48, 5-(3,5-Dimethylisoxazol-4-yl)-3-(4-(2-hydroxyethyl)piperazin-1-yl)-3-phenylindolin-2-one], for which the IC50 (TR-FRET, read-out: BRD4 IC50) is 80 nM.

Consider `Cc1noc(C)c1-c1ccc2c(c1)C(c1ccccc1)(N1C[C@@H](O)C[C@H]1CO)C(=O)N2` (single isomer, unassigned) [Compound 2.51b], for which the IC50 (TR-FRET, read-out: BRD4 IC50) is 67 nM.

`Cc1noc(C)c1-c1ccc2c(c1)C(O)(c1cccc3ccccc13)C(=O)N2` (stereo not shown) [Compound 1.11, 5-(3,5-dimethylisoxazol-4-yl)-3-hydroxy-3-(naphthalen-1-yl)indolin-2-one]: the IC50 (TR-FRET, read-out: BRD4 IC50) is 2500 nM.

With `Cc1noc(C)c1-c1ccc2c(c1)C(N)(c1ccc(F)cc1)C(=O)N2` (single isomer, unassigned) [Compound 2.59a, 3-amino-5-(3,5-dimethylisoxazol-4-yl)-3-(4-fluorophenyl)indolin-2-one], the IC50 (TR-FRET, read-out: BRD4 IC50) was found to be 4100 nM.

Take `Cc1noc(C)c1-c1ccc2c(c1)C(c1ccccc1)(N1CCC[C@@H](NC(=O)OC(C)(C)C)C1)C(=O)N2` (stereo partly shown) [Compound 2.43]: the IC50 (TR-FRET, read-out: BRD4 IC50) was determined as 510 nM.

For the compound `Cc1noc(C)c1-c1ccc2c(c1)C(N)(C1CCCCC1)C(=O)N2` (stereo not shown) [Compound 2.37, 3-amino-3-cyclohexyl-5-(3,5-dimethylisoxazol-4-yl)indolin-2-one], the IC50 (TR-FRET, read-out: BRD4 IC50) came to 93 nM.

Consider `Cc1noc(C)c1-c1ccc2c(c1)C(NC[C@@H](C)O)(c1ccccc1)C(=O)N2` (single isomer, unassigned) [Compound 2.13a], for which, where the note is “TR-FRET, read-out: BRD4 IC50”, the IC50 was found to be 710 nM.

As to `Cc1noc(C)c1-c1ccc2c(c1)C(N[C@H](CO)C(C)C)(C1CCCCC1)C(=O)N2` (single isomer, unassigned) [Compound 2.19a], for the setting “TR-FRET, read-out: BRD4 IC50”, the IC50 was above 10000 nM.

Take `Cc1noc(C)c1-c1ccc2c(c1)C(N[C@H](CO)Cc1cnc[nH]1)(c1ccccc1)C(=O)N2` (single isomer, unassigned) [Compound 2.57b, 5-(3,5-Dimethylisoxazol-4-yl)-3-((s)-1-hydroxy-3-(1h-imidazol-5-yl)propan-2-ylamino)-3-phenylindolin-2-one]: under “TR-FRET, read-out: BRD4 IC50”, the IC50 was determined as 41 nM.

For the compound `Cc1noc(C)c1-c1ccc2c(c1)C(O)(c1ccccc1)C(=O)N2` (single isomer, unassigned) [Compound 1.1b, 5-(3,5-dimethylisoxazol-4-yl)-3-hydroxy-3-phenylindolin-2-one], for the setting “TR-FRET, read-out: BRD4 IC50”, the IC50 was 7000 nM.

As for `Cc1noc(C)c1-c1ccc2c(c1)C(N[C@@H](CO)C(C)C)(C1CCCCC1)C(=O)N2` (single isomer, unassigned) [Compound 2.20a], the IC50 (TR-FRET, read-out: BRD4 IC50) is 5100 nM.

With `Cc1noc(C)c1-c1ccc2c(c1)C(N)(c1ccc(F)cc1)C(=O)N2` (stereo not shown) [Compound 2.59, 3-amino-5-(3,5-dimethylisoxazol-4-yl)-3-(4-fluorophenyl)indolin-2-one], under “TR-FRET, read-out: BRD4 IC50”, the 50% inhibitory concentration (IC50) came to 97 nM.

Turning to `Cc1noc(C)c1-c1ccc2c(c1)C(N[C@H](CO)C(C)C)(c1ccccc1)C(=O)N2` (single isomer, unassigned) [Compound 2.12b], the IC50 (TR-FRET, read-out: BRD4 IC50) turned out to be 3400 nM.

Regarding `Cc1noc(C)c1-c1ccc2c(c1)C(O)(c1ccsc1)C(=O)N2` (single isomer, unassigned) [Compound 4.1a, 5-(3,5-Dimethylisoxazol-4-yl)-3-hydroxy-3-(thiophen-3-yl)indolin-2-one], the IC50 (BRD4 IC50, TR-FRET) was 4900 nM.

As for `Cc1noc(C)c1-c1ccc2c(c1)C(N)(c1ccsc1)C(=O)N2` (stereo not shown) [Compound 4.4, 3-AMINO-5-(3,5-DIMETHYLISOXAZOL-4-YL)-3-(THIOPHEN-3-YL)INDOLIN-2-ONE], for the setting “TR-FRET, read-out: BRD4 IC50”, the IC50 came to 400 nM.

Regarding `Cc1noc(C)c1-c1ccc2c(c1)C(O)(C#Cc1ccccc1)C(=O)N2` (stereo not shown) [Compound 1.12, 5-(3,5-dimethylisoxazol-4-yl)-3-hydroxy-3-(phenylethynyl)indolin-2-one], for the setting “TR-FRET, read-out: BRD4 IC50”, the IC50 turned out to be 2300 nM.

For `Cc1noc(C)c1-c1ccc2c(c1)C(c1ccccc1)(N1CC[C@@H](NC(=O)OC(C)(C)C)C1)C(=O)N2` (stereo partly shown) [Compound 2.41, Tert-butyl (3r)-1-(5-(3,5-dimethylisoxazol-4-yl)-2-oxo-3-phenylindolin-3-yl)pyrrolidin-3-ylcarbamate], the IC50 (TR-FRET, read-out: BRD4 IC50) stood at 440 nM.

Consider `Cc1noc(C)c1-c1ccc2c(c1)C(N[C@H](CO)Cc1cnc[nH]1)(c1ccccc1)C(=O)N2` (single isomer, unassigned) [Compound 2.57a, 5-(3,5-Dimethylisoxazol-4-yl)-3-((s)-1-hydroxy-3-(1h-imidazol-5-yl)propan-2-ylamino)-3-phenylindolin-2-one], for which the IC50 (TR-FRET, read-out: BRD4 IC50) was found to be 410 nM.

Turning to `Cc1noc(C)c1-c1ccc2c(c1)C(O)(C1CCCCC1=O)C(=O)N2` (single isomer, unassigned) [Compound 1.30b, 5-(3,5-Dimethylisoxazol-4-yl)-3-hydroxy-3-(2-oxocyclohexyl)indolin-2-one], the IC50 (TR-FRET, read-out: BRD4 IC50) is 650 nM.

`Cc1noc(C)c1-c1ccc2c(c1)C(N[C@@H](CO)c1ccccc1)(c1ccccc1)C(=O)N2` (single isomer, unassigned) [Compound 2.7b]: where the note is “TR-FRET, read-out: BRD4 IC50”, the IC50 amounted to 810 nM.

As for `C#CC1(O)C(=O)Nc2ccc(-c3c(C)noc3C)cc21` (stereo not shown) [Compound 1.21, 5-(3,5-dimethylisoxazol-4-yl)-3-ethynyl-3-hydroxyindolin-2-one], under “TR-FRET, read-out: BRD4 IC50”, the IC50 was 1200 nM.

In the case of `Cc1noc(C)c1-c1ccc2c(c1)C(N[C@@H](CO)C(C)C)(c1ccccc1)C(=O)N2` (single isomer, unassigned) [Compound 2.11a], the IC50 (TR-FRET, read-out: BRD4 IC50) was 3600 nM.

For `COc1cc(-c2c(C)noc2C)cc2c1NC(=O)C2(O)c1ccccc1` (stereo not shown) [Compound 5.1, 5-(3,5-Dimethylisoxazol-4-yl)-3-hydroxy-7-methoxy-3-phenylindolin-2-one], where the note is “TR-FRET, read-out: BRD4 IC50”, the IC50 turned out to be 450 nM.

With `Cc1noc(C)c1-c1ccc2c(c1)C(N)(c1ccc(F)cc1)C(=O)N2` (single isomer, unassigned) [Compound 2.59b, 3-amino-5-(3,5-dimethylisoxazol-4-yl)-3-(4-fluorophenyl)indolin-2-one], the IC50 (TR-FRET, read-out: BRD4 IC50) was 36 nM.

Take `Cc1noc(C)c1-c1ccc2c(c1)C(c1ccccc1)(N1C[C@@H](O)C[C@H]1CO)C(=O)N2` (single isomer, unassigned) [Compound 2.51a]: the concentration for half-maximal inhibition (IC50) (TR-FRET, read-out: BRD4 IC50) is 1400 nM.

With `COc1ccc(C2(O)C(=O)Nc3ccc(-c4c(C)noc4C)cc32)cc1OC` (stereo not shown) [Compound 1.10, 3-(3,4-dimethoxyphenyl)-5-(3,5-dimethylisoxazol-4-yl)-3-hydroxyindolin-2-one], the IC50 (TR-FRET, read-out: BRD4 IC50) came to 1300 nM.

On to `Cc1noc(C)c1-c1ccc2c(c1)C(c1ccsc1)C(=O)N2` (stereo not shown) [Compound 4.11, 5-(3,5-Dimethylisoxazol-4-yl)-3-(thiophen-3-yl)indolin-2-one], for which the IC50 (TR-FRET, read-out: BRD4 IC50) is 120 nM.

Turning to `COC(=O)[C@H](Cc1cnc[nH]1)NC1(c2ccccc2)C(=O)Nc2ccc(-c3c(C)noc3C)cc21` (stereo partly drawn) [Compound 2.57, (2S)-Methyl 2-(5-(3,5-dimethylisoxazol-4-yl)-2-oxo-3-phenylindolin-3-ylamino)-3-(1h-imidazol-5-yl)propanoate], the IC50 (TR-FRET, read-out: BRD4 IC50) worked out at 90 nM.

In the case of `Cc1noc(C)c1-c1ccc2c(c1)C(NC[C@H](C)O)(c1ccccc1)C(=O)N2` (single isomer, unassigned) [Compound 2.14b], for the setting “TR-FRET, read-out: BRD4 IC50”, the concentration for half-maximal inhibition (IC50) came to 610 nM.

With `Cc1noc(C)c1-c1ccc2c(c1)C(C1CCCCC1)(N1CC(O)C1)C(=O)N2` (stereo not shown) [Compound 2.33, 3-cyclohexyl-5-(3,5-dimethylisoxazol-4-yl)-3-(3-hydroxyazetidin-1-yl)indolin-2-one], the IC50 (TR-FRET, read-out: BRD4 IC50) amounted to 120 nM.

Consider `Cc1noc(C)c1-c1ccc2c(c1)C(C1CCCCC1)(N1CCC[C@@H](O)C1)C(=O)N2` (stereo partly drawn) [Compound 2.30, 3-cyclohexyl-5-(3,5-dimethylisoxazol-4-yl)-3-((R)-3-hydroxypiperidin-1-yl)indolin-2-one], for which the IC50 (TR-FRET, read-out: BRD4 IC50) worked out at 61 nM.

As to `Cc1noc(C)c1-c1ccc2c(c1)C(N[C@H](CO)c1ccccc1)(c1ccccc1)C(=O)N2` (single isomer, unassigned) [Compound 2.8b], the IC50 (TR-FRET, read-out: BRD4 IC50) was 2200 nM.

Consider `Cc1noc(C)c1-c1ccc2c(c1)C(O)(CCCc1ccccc1)C(=O)N2` (stereo not shown) [Compound 1.29, 5-(3,5-dimethylisoxazol-4-yl)-3-hydroxy-3-(3-phenylpropyl)indolin-2-one], for which the IC50 (TR-FRET, read-out: BRD4 IC50) was determined as 1600 nM.

As for `Cc1noc(C)c1-c1ccc2c(c1)C(c1ccccc1)(N1CCC[C@H]1CO)C(=O)N2` (stereo partly shown) [Compound 2.53, 5-(3,5-Dimethylisoxazol-4-yl)-3-((s)-2-(hydroxymethyl)pyrrolidin-1-yl)-3-phenylindolin-2-one], under “TR-FRET, read-out: BRD4 IC50”, the IC50 came out at 90 nM.

Consider `Cc1noc(C)c1-c1ccc2c(c1)C(c1ccsc1)(N1CCC(O)CC1)C(=O)N2` (stereo not shown) [Compound 4.5, 5-(3,5-DIMETHYLISOXAZOL-4-YL)-3-(4-HYDROXYPIPERIDIN-1-YL)-3-(THIOPHEN-3-YL)INDOLIN-2-ONE], for which, for the setting “TR-FRET, read-out: BRD4 IC50”, the IC50 was 25 nM.

As for `Cc1noc(C)c1-c1ccc2c(c1)C(CC(=O)O)(c1ccccc1)C(=O)N2` (stereo not shown) [Compound 3.4, 2-(5-(3,5-dimethylisoxazol-4-yl)-2-oxo-3-phenylindolin-3-yl)acetic acid], for the setting “TR-FRET, read-out: BRD4 IC50”, the IC50 turned out to be 6100 nM.

Take `Cc1noc(C)c1-c1ccc2c(c1)C(c1ccccc1)(N1CCC[C@H](NC(=O)OC(C)(C)C)C1)C(=O)N2` (stereo partly shown) [Compound 2.44, Tert-butyl (3s)-1-(5-(3,5-dimethylisoxazol-4-yl)-2-oxo-3-phenylindolin-3-yl)piperidin-3-ylcarbamate]: where the note is “TR-FRET, read-out: BRD4 IC50”, the IC50 is 1100 nM.

For the compound `Cc1noc(C)c1-c1ccc2c(c1)C(c1ccccc1)(N1CC[C@@H](N)C1)C(=O)N2` (stereo partly drawn) [Compound 2.42, 3-((R)-3-aminopyrrolidin-1-yl)-5-(3,5-dimethylisoxazol-4-yl)-3-phenylindolin-2-one], the IC50 (TR-FRET, read-out: BRD4 IC50) worked out at 27 nM.
